Results reported in EP1881000A1, “Conjugates of 2-fluoro-2-deoxy-glucose and their uses as anti cancer agents” (INSTITUT NATIONAL DE LA SANTE ET DE LA RECHERCHE MEDICALE …, priority 2006, dated 2008).
“And” between values parts separate entries of the source, which are not always exact repeats. Identical values can stand only once.

Columns and labels:
B16 melanoma = experiment: Antitumour activity in B16-melanoma bearing mice, IP chemotherapy protocol; assay type: in vivo, C57BL6J male mice; details: for Life span of the animals: B16 melanoma-bearing mice; for antitumour activity according to the NCI criteria decisions: in words
Description: (§1) Drugs were dissolved in a mixture of dimethylacetamide (Sigma) and oleic macrogolglycerides (Labrafil® M1944Cs, Gattefossé) (10:90%, vol/vol).
(§2) It is performed in tumour-bearing mice following an IP chemotherapy protocol.
To establish B16 melanoma model, 3 x 10^5 B16F0 cells (ATCC, Manassas, USA; in vitro doubling time of 16 hours) were suspended in 100 µL of phosphate buffer solution (PBS®, life Technologies) and injected into the subcutaneous tissue of the right flank of C57BL6J male mice, 6-weeks-old (Charles River, France) on day zero.
(§3) For both molecules and both animal models, treatment was initiated eight days post tumour grafting, when the tumours had reached a measurable size, corresponding to a calculated tumour weight (CTW) of 40 and 70 mg for B16 and CT-26 models respectively.
(§4) Animals were then randomly divided in both treatment and control groups. […] Two dosages have been evaluated, MTD and 0.75 MTD
(§5) Mice were weighed and observed every two days over a 30-day -period to evaluate general clinical state. Length and width of tumours were measured every two days over a 30-day-period using a dedicated slide calliper.
(§6) The Calculated Tumour Weight (CTW) of each tumour was determined according to the formula: CTW(mg) = L × 1^2 /2 [formula] with L = length in mm and 1= width in mm.
(§7) For subcutaneously growing tumours, antitumour activity is often assessed by using the log10 cell kill (LCK) which is calculated from the following formula: LCK = T-C value in days/3.32 × Td [formula] T is the median time (in days) required for the treatment group tumours to reach a predetermined CTW (e.g. 1000 mg). C is the median time (in days) required for the control group tumours to reach the same CTW. Td is the tumour volume doubling time (in days) estimated from the best fit straight line from a log-linear growth plot of the control group tumours in exponential growth.
(§8) An increase in life span was defined by the ratio of the median survival of drug-treated mice (Mt) versus controls (Mc): a survival Mt/Mc equal or higher than 125 % was sought
(§9) Mean weight loss of the group was used to evaluate treatment side effects. A mean body weight loss of greater 20% was considered to indicate an excessively toxic dosage.

CT-26 colon carcinoma = experiment: Antitumour activity in CT-26 colon carcinoma bearing mice, IP chemotherapy protocol; assay type: in vivo, BALB/c male mice; details: for tumour growth inhibition (CTW time-course): CT26 carcinoma, vs non-treated and vehicle-treated groups, p< 0.05; for LCK / Antitumour Efficacy / Survival Mt/Mc / Weight loss (% max) / antitumour activity according to the NCI criteria decisions: CT26 colon carcinoma; for antitumour activity according to the NCI criteria decisions: in words; for Life span of the animals: CT-26 colon carcinoma-bearing mice
Description: as §1, §2
To establish CT-26 colon carcinoma model, 2.5 x 10^5 CT26 cells (Dr Iaiaih J.Filder of MDAnderson Cancer Center, University of Texas; in vitro doubling time of 20 hours) were suspended in 100 µL of phosphate buffer solution and injected into the subcutaneous tissue of the right flank of BALB/c male mice, 6-weeks-old (Charles River, France) on day zero.
as §3, §4, §5, §6
Considering physiopathological features of the CT26 colon carcinoma model, mainly cachexy, drugs 21a and 40a, were assessed at the lowest dosage, i.e. 0.75 MTD administered at Day 8, Day 12, Day 16.
The reference treatment chlorambucil was given at the MTD dosage according to the same schedule.
as §7, §8, §9

[1] = system: prostatic adenocarcinoma PC 3; experiment: In vitro cytotoxicity assay (resazurin reduction test); assay type: cell-based; details: Homo sapiens; PC3; 48-h continuous drug exposure
Text: (§10) Normal human fibroblasts were purchased from Promocell (Heidelberg, Germany). This frozen culture was obtained from foreskin waste and the cells used in this work were from the seventh to twelfth passage of the culture. M4Beu, a human melanoma cell line, was established in the laboratory of Dr. J. F. Doré (INSERM, Unit 218, Lyon, France) from metastatic biopsy specimens and maintained in cell culture for almost 20 years in our lab. Breast cancer adenocarcinoma MCF 7, prostatic adenocarcinoma PC 3, colon adenocarcinoma DLD-1, lung non-small cell carcinoma A 549, ovary adenocarcinoma PA1 human cell lines and L 929 murine cell line were purchased from the European Collection of Cell Cultures (ECACC; Salisbury, United Kingdom). Murine Melanoma B16 was purchased from American Type of Culture Collection (ATCC, Manassas, USA) and murine colon carcinoma cell line CT-26 was obtained from Dr I. J. Fidler (University of Texas M.D. Anderson Cancer Center, Houston).
(§11) Stock cell cultures were maintained as monolayers in 75cm^2 culture flasks in Glutamax Eagle's minimum essential medium with Earle's salts (MEM; Gibco BRL, Paisley, UK) supplemented with 10% fetal calf serum (Sigma, St Quentin Fallavier, France), 1 mM sodium pyruvate (Gibco), 1X vitamins solution (Gibco), 1X non essential amino acids solution (Gibco) and 4 µg/ml of gentamicine (Gibco). Cells were grown at 37°C in a humidified atmosphere containing 5% CO2.
(§12) Cells were plated at a density of 5 x 10^3 cells per well in 96-well microplates (Nunclon™, Nunc, Roskilde, Denmark) in 150 µl of culture medium and were allowed to adhere for 16 h before treatment with the compound tested.
(§13) Stock solution of each compound was prepared in dimethylsulfoxide (DMSO) and kept at -20°C. until use. The percentage of DMSO was kept at 0.5% (v/v) whichever the concentration tested. […] Fifty microliters of a 4X solution in MEM was then added and a 48-h continuous drug exposure protocol was used. Then, the cytotoxic effect of compounds on tumour cells was tested by using Resazurin reduction test.
(§14) Resazurin was identified as the Alamar blue dye (O'Brien, J. et al.; European Journal of Biochemistry, 267, 5421-6, (2000)). The resazurin reduction test (RRT) was carried out according to the protocol described here. Briefly, plates were rinsed by 200 µl PBS (37° C, Gibco) using a multichannel dispenser (Labsystems, Helsinki, Finland) and emptied by overturning on absorbent toweling. Then, 150 µl of a 25 µg/ml solution of resazurin in MEM without SVF nor Phenol red was added in each well. The plates were incubated 1 h at 37° C. in an humidified atmosphere with 5% of CO2 for fluorescence development by living cells. Fluorescence was then measured on the automated 96-well plate reader Fluoroskan Ascent FL™ (Labsystems) using an excitation wavelength of 530 nm and an emission one of 590 nm.
(§15) Cytotoxic activity has been tested against the six human tumour cell lines breast adenocarcinoma MCF-7, colon adenocarcinoma DLD-1, ovary adenocarcinoma PA1, prostatic adenocarcinoma PC3, lung carcinoma A549, melanoma M4Beu and a primary culture of human fibroblasts.

[2] = system: Breast cancer adenocarcinoma MCF 7; experiment: as above; assay type: cell-based; details: Homo sapiens; MCF7; 48-h continuous drug exposure
Text: as §10, §11, §12, §13, §14, §15

tumour cells = experiment: In vitro cytotoxicity assay, statements over all cell lines of Table 1; assay type: cell-based; details: Homo sapiens, PA-1
Text: as §10, with “Houston). […]” for “Houston).”
Resazurin was identified as the Alamar blue dye (O'Brien, J. et al.; European Journal of Biochemistry, 267, 5421-6, (2000)). […] The plates were incubated 1 h at 37° C. in an humidified atmosphere with 5% of CO2 for fluorescence development by living cells. Fluorescence was then measured on the automated 96-well plate reader Fluoroskan Ascent FL™ (Labsystems) using an excitation wavelength of 530 nm and an emission one of 590 nm. […]

[3] = B16 melanoma, dosage not stated
[4] = B16 melanoma, 75% MTD, IP D8, D12, D16
[5] = B16 melanoma, MTD, IP D8, D12, D16
[6] = 0,75 MTD IP at Day 8, 12 and 16

SMILES | LCK (B16 melanoma; [3]) | Life span of the animals (B16 melanoma) | Antitumour Efficacy (B16 melanoma; [4]) | LCK (B16 melanoma; [4]) | Survival Mt/Mc (B16 melanoma; [4]) | Weight loss (% max) (B16 melanoma; [4]) | Antitumour Efficacy (B16 melanoma; [5]) | LCK (B16 melanoma; [5]) | Survival Mt/Mc (B16 melanoma; [5]) | Weight loss (% max) (B16 melanoma; [5]) | antitumour activity according to the NCI criteria decisions (B16 melanoma; B16 melanoma) | tumour growth inhibition (CTW time-course) (CT-26 colon carcinoma; [6]) | LCK (CT-26 colon carcinoma; dosage not stated) | Antitumour Efficacy (CT-26 colon carcinoma; 75% MTD, IP D8, D12, D16) | LCK (CT-26 colon carcinoma; 75% MTD, IP D8, D12, D16) | Survival Mt/Mc (CT-26 colon carcinoma; 75% MTD, IP D8, D12, D16) | Weight loss (% max) (CT-26 colon carcinoma; 75% MTD, IP D8, D12, D16) | antitumour activity according to the NCI criteria decisions (CT-26 colon carcinoma) | Life span of the animals (CT-26 colon carcinoma) | IC50 [1] | also measured
CC(=O)OC[C@H]1O[C@@H](Oc2ccc(NC(=O)CNC(=O)CCCc3ccc(N(CCCl)CCCl)cc3)cc2)[C@H](F)[C@@H](OC(C)=O)[C@@H]1OC(C)=O [Compound 40a, N-{2-[4-(3,4,6-tri-O-acetyl-2-deoxy-2-fluoro-β-D-glucopyranosyloxy)phenyl]amino-2-oxoethyl}-4-{4-[bis(2-chloroethyl)amino]phenyl}butanamide] | around 1.5 | increased | ++ (1.7 < LCK < 1.9 highly active drug (++)) | 1.81 | 1.5 | 13.6% | ++ (1.7 < LCK < 1.9 highly active drug (++)) | 1.53 | 0.8 | 16.9% | highly active | significant tumour growth inhibition | around 1.5 | ++ (1.7 < LCK < 1.9 highly active drug (++)) | 1.52 | 1.29 | 21% and 21.5% | highly active | increased | 7 ± 2 µM | 
CC(=O)OC[C@H]1O[C@@H](NC(=O)CNC(=O)CCCc2ccc(N(CCCl)CCCl)cc2)[C@H](F)[C@@H](OC(C)=O)[C@@H]1OC(C)=O [Compound 21a, N-[2-(3,4,6-tri-O-acetyl-2-deoxy-2-fluoro-β-D-glucopyranosylamino)-2-oxoethyl]-4-{4-[bis(2-chloroethyl)amino]phenyl}butanamide] | around 1.1 | increased | + (0.7 < LCK < 1.2 active drug (+)) | 1.10 | 1.18 | 16% | + (0.7 < LCK < 1.2 active drug (+)) | 1.02 | 0.74 | 15.7% | active | significant tumour growth inhibition | around 1.1 | + (0.7 < LCK < 1.2 active drug (+)) | 1.10 | 1.5 | 17.1% | active | increased | 10 ± 2 µM | IC50 [2]: 8 ± 2 µM
O=C(O)CCCc1ccc(N(CCCl)CCCl)cc1 [chlorambucil, reference compound] | < 0.7 | not | - (LCK < 0.7 inactive drug (-)) | 0.05 | 0.67 | 7.3% | - (LCK < 0.7 inactive drug (-)) | 0.24 | 1 | 13.6% | inactive |  | 0.79 |  |  |  |  | discrete antitumour activity | not |  | IC50 (tumour cells): > 40 µM; tumour growth inhibition (CTW time-course) (B16 melanoma; B16 melanoma, both MTD and 0,75 MTD dosages, vs non-treated and vehicle-treated groups, p< 0.05): failed to induce any tumour growth inhibition; antitumour activity according to the NCI criteria decisions (B16 melanoma; B16 melanoma, listed as Chlorambucil): failed in exhibiting any antitumour activity; tumour growth inhibition (CTW time-course) (CT-26 colon carcinoma; MTD dosage, same schedule): significant tumour growth inhibition; LCK (CT-26 colon carcinoma; MTD, IP D8, D12, D16): 0.79; Survival Mt/Mc (CT-26 colon carcinoma; MTD, IP D8, D12, D16): 0.74; Weight loss (% max) (CT-26 colon carcinoma; MTD, IP D8, D12, D16): 13.9%; antitumour activity according to the NCI criteria decisions (CT-26 colon carcinoma; listed as Chlorambucil): failed in exhibiting any antitumour activity; IC50 [2]: > 100 µM
